# Measurements published in patent US20250282827A1, “LIPIDATED POLYMYXIN ANALOGUES” (priority 2021, published 2025).
# Positions of bridges follow the written chain, without caps; N, C: chain ends. Non-standard residues stand in square brackets, D forms with d. Residues, ends and D or L forms follow the SMILES beside them. *: point of attachment. CH2CH2OBz(4-tBu) = CC(C)(C)c1ccc(C(=O)OCC*)cc1; Dab = NCC[C@H](N)C(=O)O; X6 = CCC(C)(C)C(=O)OCC*; X10 = CCC(C)CC(=O)OCC*; X2 = O=C(OCC*)C1CCCCC1; X12 = O=C(OCC*)C1CCC1; X7 = CC(C)CCC(=O)OCC*; X8 = O=C(OCC*)C1CCCC1; X11 = O=C(OCC*)C1CC1; X5 = CCC(C)C(=O)OCC*; X9 = CC(C)CC(=O)OCC*
# What was measured:
# E. coli ATCC 25922 = type: cell-based, Escherichia coli; conditions: ATCC 25922
# From the text: (§1) All 81 compounds prepared in Examples 2 and 3 underwent screening against a panel of Gram-negative bacterium to assess their ability to inhibit bacterial growth. […] The median value is presented.
# A. baumannii ATCC 19606 = type: cell-based, Acinetobacter baumannii; conditions: ATCC 19606
# From the text: as §1
# P. aeruginosa ATCC 27853 = type: cell-based, Pseudomonas aeruginosa; conditions: ATCC 27853
# From the text: as §1
# K. pneumoniae ATCC 33495 = type: cell-based, Klebsiella pneumoniae; conditions: ATCC 33495
# From the text: as §1
# [1] = system: K. pneumoniae ATCC 700603; type: cell-based, Klebsiella pneumoniae; conditions: ATCC 700603
# From the text: as §1
# [2] = system: K. pneumoniae ATCC MS6671; type: cell-based, Klebsiella pneumoniae; conditions: ATCC MS6671
# From the text: as §1
# E. coli ATCC MS8345 = type: cell-based, Escherichia coli; conditions: ATCC MS8345
# From the text: as §1
# Expansion of the polymyxin macrocycle by substituting […]) offered little advantage in antimicrobial activity but was generally well tolerated although for A. baumanni and P. aeruginosa this was detrimental.
smiles,measurement,setting,value
CCC(C)C(=O)OCCSC[C@@H](N)C(=O)N[C@H](C(=O)N[C@@H](CCN)C(=O)N[C@H]1CCNC(=O)[C@H]([C@@H](C)O)NC(=O)[C@H](CCN)NC(=O)[C@H](CCN)NC(=O)[C@H](CC(C)C)NC(=O)[C@@H](Cc2ccccc2)NC(=O)[C@H](CCN)NC1=O)[C@@H](C)O (stereo partly shown) [Compound 95] (H-[dC](X5)T[Dab][Dab][Dab][dF]L[Dab][Dab]T; lactam 4-C),MIC E. coli ATCC 25922,E. coli ATCC 25922,1 µg/mL
same,MIC A. baumannii ATCC 19606,A. baumannii ATCC 19606,4 µg/mL
same,MIC P. aeruginosa ATCC 27853,P. aeruginosa ATCC 27853,1 µg/mL
same,MIC K. pneumoniae ATCC 33495,K. pneumoniae ATCC 33495,1 µg/mL
same,MIC K. pneumoniae ATCC 700603,[1],2 µg/mL
same,MIC K. pneumoniae ATCC MS6671,[2],>32 µg/mL
same,MIC E. coli ATCC MS8345,E. coli ATCC MS8345,16 µg/mL
CC(C)CC(=O)OCCSC[C@@H](N)C(=O)N[C@H](C(=O)N[C@@H](CCN)C(=O)N[C@H]1CCNC(=O)[C@H]([C@@H](C)O)NC(=O)[C@H](CCN)NC(=O)[C@H](CCN)NC(=O)[C@H](CC(C)C)NC(=O)[C@@H](Cc2ccccc2)NC(=O)[C@H](CCN)NC1=O)[C@@H](C)O [Compound 96] (H-[dC](X9)T[Dab][Dab][Dab][dF]L[Dab][Dab]T; lactam 4-C),MIC E. coli ATCC 25922,E. coli ATCC 25922,0.25 µg/mL
same,MIC A. baumannii ATCC 19606,A. baumannii ATCC 19606,4 µg/mL
same,MIC P. aeruginosa ATCC 27853,P. aeruginosa ATCC 27853,1 µg/mL
same,MIC K. pneumoniae ATCC 33495,K. pneumoniae ATCC 33495,1 µg/mL
same,MIC K. pneumoniae ATCC 700603,[1],1 µg/mL
same,MIC K. pneumoniae ATCC MS6671,[2],>32 µg/mL
same,MIC E. coli ATCC MS8345,E. coli ATCC MS8345,16 µg/mL
CCC(C)CC(=O)OCCSC[C@@H](N)C(=O)N[C@H](C(=O)N[C@@H](CCN)C(=O)N[C@H]1CCNC(=O)[C@H]([C@@H](C)O)NC(=O)[C@H](CCN)NC(=O)[C@H](CCN)NC(=O)[C@H](CC(C)C)NC(=O)[C@@H](Cc2ccccc2)NC(=O)[C@H](CCN)NC1=O)[C@@H](C)O (stereo partly shown) [Compound 97] (H-[dC](X10)T[Dab][Dab][Dab][dF]L[Dab][Dab]T; lactam 4-C),MIC E. coli ATCC 25922,E. coli ATCC 25922,1 µg/mL
same,MIC A. baumannii ATCC 19606,A. baumannii ATCC 19606,4 µg/mL
same,MIC P. aeruginosa ATCC 27853,P. aeruginosa ATCC 27853,2 µg/mL
same,MIC K. pneumoniae ATCC 33495,K. pneumoniae ATCC 33495,1 µg/mL
same,MIC K. pneumoniae ATCC 700603,[1],2 µg/mL
same,MIC K. pneumoniae ATCC MS6671,[2],>32 µg/mL
same,MIC E. coli ATCC MS8345,E. coli ATCC MS8345,16 µg/mL
CC(C)CCC(=O)OCCSC[C@@H](N)C(=O)N[C@H](C(=O)N[C@@H](CCN)C(=O)N[C@H]1CCNC(=O)[C@H]([C@@H](C)O)NC(=O)[C@H](CCN)NC(=O)[C@H](CCN)NC(=O)[C@H](CC(C)C)NC(=O)[C@@H](Cc2ccccc2)NC(=O)[C@H](CCN)NC1=O)[C@@H](C)O [Compound 98] (H-[dC](X7)T[Dab][Dab][Dab][dF]L[Dab][Dab]T; lactam 4-C),MIC E. coli ATCC 25922,E. coli ATCC 25922,0.5 µg/mL
same,MIC A. baumannii ATCC 19606,A. baumannii ATCC 19606,2 µg/mL
same,MIC P. aeruginosa ATCC 27853,P. aeruginosa ATCC 27853,1 µg/mL
same,MIC K. pneumoniae ATCC 33495,K. pneumoniae ATCC 33495,1 µg/mL
same,MIC K. pneumoniae ATCC 700603,[1],1 µg/mL
same,MIC K. pneumoniae ATCC MS6671,[2],>32 µg/mL
same,MIC E. coli ATCC MS8345,E. coli ATCC MS8345,4 µg/mL
CCC(C)(C)C(=O)OCCSC[C@@H](N)C(=O)N[C@H](C(=O)N[C@@H](CCN)C(=O)N[C@H]1CCNC(=O)[C@H]([C@@H](C)O)NC(=O)[C@H](CCN)NC(=O)[C@H](CCN)NC(=O)[C@H](CC(C)C)NC(=O)[C@@H](Cc2ccccc2)NC(=O)[C@H](CCN)NC1=O)[C@@H](C)O [Compound 99] (H-[dC](X6)T[Dab][Dab][Dab][dF]L[Dab][Dab]T; lactam 4-C),MIC E. coli ATCC 25922,E. coli ATCC 25922,2 µg/mL
same,MIC A. baumannii ATCC 19606,A. baumannii ATCC 19606,4 µg/mL
same,MIC P. aeruginosa ATCC 27853,P. aeruginosa ATCC 27853,4 µg/mL
same,MIC K. pneumoniae ATCC 33495,K. pneumoniae ATCC 33495,2 µg/mL
same,MIC K. pneumoniae ATCC 700603,[1],2 µg/mL
same,MIC K. pneumoniae ATCC MS6671,[2],>32 µg/mL
same,MIC E. coli ATCC MS8345,E. coli ATCC MS8345,>32 µg/mL
CC(C)C[C@@H]1NC(=O)[C@@H](Cc2ccccc2)NC(=O)[C@H](CCN)NC(=O)[C@@H](NC(=O)[C@H](CCN)NC(=O)[C@@H](NC(=O)[C@H](N)CSCCOC(=O)C2CC2)[C@@H](C)O)CCNC(=O)[C@H]([C@@H](C)O)NC(=O)[C@H](CCN)NC(=O)[C@H](CCN)NC1=O [Compound 100] (H-[dC](X11)T[Dab][Dab][Dab][dF]L[Dab][Dab]T; lactam 4-C),MIC E. coli ATCC 25922,E. coli ATCC 25922,4 µg/mL
same,MIC A. baumannii ATCC 19606,A. baumannii ATCC 19606,16 µg/mL
same,MIC P. aeruginosa ATCC 27853,P. aeruginosa ATCC 27853,4 µg/mL
same,MIC K. pneumoniae ATCC 33495,K. pneumoniae ATCC 33495,2 µg/mL
same,MIC K. pneumoniae ATCC 700603,[1],4 µg/mL
same,MIC K. pneumoniae ATCC MS6671,[2],>32 µg/mL
same,MIC E. coli ATCC MS8345,E. coli ATCC MS8345,>32 µg/mL
CC(C)C[C@@H]1NC(=O)[C@@H](Cc2ccccc2)NC(=O)[C@H](CCN)NC(=O)[C@@H](NC(=O)[C@H](CCN)NC(=O)[C@@H](NC(=O)[C@H](N)CSCCOC(=O)C2CCC2)[C@@H](C)O)CCNC(=O)[C@H]([C@@H](C)O)NC(=O)[C@H](CCN)NC(=O)[C@H](CCN)NC1=O [Compound 101] (H-[dC](X12)T[Dab][Dab][Dab][dF]L[Dab][Dab]T; lactam 4-C),MIC E. coli ATCC 25922,E. coli ATCC 25922,1 µg/mL
same,MIC A. baumannii ATCC 19606,A. baumannii ATCC 19606,4 µg/mL
same,MIC P. aeruginosa ATCC 27853,P. aeruginosa ATCC 27853,2 µg/mL
same,MIC K. pneumoniae ATCC 33495,K. pneumoniae ATCC 33495,1 µg/mL
same,MIC K. pneumoniae ATCC 700603,[1],2 µg/mL
same,MIC K. pneumoniae ATCC MS6671,[2],>32 µg/mL
same,MIC E. coli ATCC MS8345,E. coli ATCC MS8345,>32 µg/mL
CC(C)C[C@@H]1NC(=O)[C@@H](Cc2ccccc2)NC(=O)[C@H](CCN)NC(=O)[C@@H](NC(=O)[C@H](CCN)NC(=O)[C@@H](NC(=O)[C@H](N)CSCCOC(=O)C2CCCC2)[C@@H](C)O)CCNC(=O)[C@H]([C@@H](C)O)NC(=O)[C@H](CCN)NC(=O)[C@H](CCN)NC1=O [Compound 102] (H-[dC](X8)T[Dab][Dab][Dab][dF]L[Dab][Dab]T; lactam 4-C),MIC E. coli ATCC 25922,E. coli ATCC 25922,1 µg/mL
same,MIC A. baumannii ATCC 19606,A. baumannii ATCC 19606,16 µg/mL
same,MIC P. aeruginosa ATCC 27853,P. aeruginosa ATCC 27853,2 µg/mL
same,MIC K. pneumoniae ATCC 33495,K. pneumoniae ATCC 33495,1 µg/mL
same,MIC K. pneumoniae ATCC 700603,[1],1 µg/mL
same,MIC K. pneumoniae ATCC MS6671,[2],>32 µg/mL
same,MIC E. coli ATCC MS8345,E. coli ATCC MS8345,16 µg/mL
CC(C)C[C@@H]1NC(=O)[C@@H](Cc2ccccc2)NC(=O)[C@H](CCN)NC(=O)[C@@H](NC(=O)[C@H](CCN)NC(=O)[C@@H](NC(=O)[C@H](N)CSCCOC(=O)C2CCCCC2)[C@@H](C)O)CCNC(=O)[C@H]([C@@H](C)O)NC(=O)[C@H](CCN)NC(=O)[C@H](CCN)NC1=O [Compound 103] (H-[dC](X2)T[Dab][Dab][Dab][dF]L[Dab][Dab]T; lactam 4-C),MIC E. coli ATCC 25922,E. coli ATCC 25922,2 µg/mL
same,MIC A. baumannii ATCC 19606,A. baumannii ATCC 19606,4 µg/mL
same,MIC P. aeruginosa ATCC 27853,P. aeruginosa ATCC 27853,2 µg/mL
same,MIC K. pneumoniae ATCC 33495,K. pneumoniae ATCC 33495,2 µg/mL
same,MIC K. pneumoniae ATCC 700603,[1],2 µg/mL
same,MIC K. pneumoniae ATCC MS6671,[2],>32 µg/mL
same,MIC E. coli ATCC MS8345,E. coli ATCC MS8345,16 µg/mL
CC(C)C[C@@H]1NC(=O)[C@@H](Cc2ccccc2)NC(=O)[C@H](CCN)NC(=O)[C@@H](NC(=O)[C@H](CCN)NC(=O)[C@@H](NC(=O)[C@H](N)CSCCOC(=O)c2ccc(C(C)(C)C)cc2)[C@@H](C)O)CCNC(=O)[C@H]([C@@H](C)O)NC(=O)[C@H](CCN)NC(=O)[C@H](CCN)NC1=O [Compound 104] (H-[dC](CH2CH2OBz(4-tBu))T[Dab][Dab][Dab][dF]L[Dab][Dab]T; lactam 4-C),MIC E. coli ATCC 25922,E. coli ATCC 25922,2 µg/mL
same,MIC A. baumannii ATCC 19606,A. baumannii ATCC 19606,4 µg/mL
same,MIC P. aeruginosa ATCC 27853,P. aeruginosa ATCC 27853,2 µg/mL
same,MIC K. pneumoniae ATCC 33495,K. pneumoniae ATCC 33495,2 µg/mL
same,MIC K. pneumoniae ATCC 700603,[1],4 µg/mL
same,MIC K. pneumoniae ATCC MS6671,[2],>32 µg/mL
same,MIC E. coli ATCC MS8345,E. coli ATCC MS8345,2 µg/mL
